Assay [1] concerns the target full-length MALT1 protein (Strep-MALT1(1-824)-His) (Homo sapiens (Human), UniProt Q9UDY8). The experiment in a line: MALT1 Biochemical Protease Assay (Ac-LRSR-AMC substrate). Conditions: 10 nM FL MALT1, 200 μM Ac-LRSR-AMC, 4 h at RT; read-out: MALT1_Biochemical activity (Ac-LRSR-amc) IC50. A digest of the protocol: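 Full-length MALT1 pre-incubated with compounds (30 μM to 0.5 nM, 11 threefold steps) for 50 min at RT. After Ac-LRSR-AMC was added, the reaction ran 4 h at RT and AMC fluorescence was read. IC50 and Hill slope from curve fitting against no-enzyme and no-compound controls.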

Assay [2] relates to IL6 secretion by OCI-LY3 ABC-DLBCL cells. The experiment in a line: Human IL6 Mesoscale assay (OCI-LY3). It counts as cell-based. The settings on record: Homo sapiens, 24 h. Put shortly:
(§1)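 TMD8 or OCI-LY3 cells (100,000/well) were exposed to compounds in 9 twofold dilutions from 15 μM to 58.6 nM (0.3% DMSO) for 24 h at 37 °C. Supernatant IL6 and IL10 were quantified by MSD electrochemiluminescence immunoassay. DMSO defined maximum signal and BTK inhibitor RN486 (30 nM–131 pM) defined maximum inhibition.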

The test system of assay [3] is IL10 secretion by OCI-LY3 ABC-DLBCL cells. The experiment in a line: Human IL10 Mesoscale assay (OCI-LY3). It counts as cell-based. The settings on record: Homo sapiens, 24 h. A digest of the protocol:
as §1

What is called IC50 is the concentration needed to halve the response being measured.

Chain of full-length MALT1 protein (Strep-MALT1(1-824)-His) (Q9UDY8 whole entry): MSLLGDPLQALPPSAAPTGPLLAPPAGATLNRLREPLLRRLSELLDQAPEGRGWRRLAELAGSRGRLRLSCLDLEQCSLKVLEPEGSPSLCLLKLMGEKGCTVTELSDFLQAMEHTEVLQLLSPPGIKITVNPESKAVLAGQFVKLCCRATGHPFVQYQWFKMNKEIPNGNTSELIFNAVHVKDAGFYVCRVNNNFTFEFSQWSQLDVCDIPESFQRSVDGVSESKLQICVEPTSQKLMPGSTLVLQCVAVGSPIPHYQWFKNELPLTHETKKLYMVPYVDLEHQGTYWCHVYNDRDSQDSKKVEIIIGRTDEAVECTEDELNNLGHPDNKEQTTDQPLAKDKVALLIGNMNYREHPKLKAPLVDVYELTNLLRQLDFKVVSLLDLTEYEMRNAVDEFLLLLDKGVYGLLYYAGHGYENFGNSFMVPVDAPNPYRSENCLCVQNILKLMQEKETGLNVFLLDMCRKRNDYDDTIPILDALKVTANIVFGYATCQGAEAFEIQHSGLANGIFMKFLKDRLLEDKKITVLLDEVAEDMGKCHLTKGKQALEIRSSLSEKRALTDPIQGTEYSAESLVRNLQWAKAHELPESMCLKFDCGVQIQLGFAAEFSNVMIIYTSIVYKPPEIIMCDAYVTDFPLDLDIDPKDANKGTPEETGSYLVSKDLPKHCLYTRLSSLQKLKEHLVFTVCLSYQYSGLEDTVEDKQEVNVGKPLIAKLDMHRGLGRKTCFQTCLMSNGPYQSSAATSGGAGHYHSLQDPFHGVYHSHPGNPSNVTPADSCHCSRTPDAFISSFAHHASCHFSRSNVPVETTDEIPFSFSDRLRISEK

As for `Cc1cc(-n2nccn2)c(C#N)cc1NC(=O)c1cnn(-c2cccc3scnc23)c1C(F)(F)F` [Cpd 298, 1-(benzo[d]thiazol-4-yl)-N-(5-cyano-2-methyl-4-(2H-1,2,3-triazol-2-yl)phenyl)-5-(trifluoromethyl)-1H-pyrazole-4-carboxamide], the values for the IC50 in assay [1], in assay [2] and in assay [3] were 1350 nM, 50 nM and 25 nM, respectively.
With `Nc1cnn(-c2ncc(NC(=O)c3cnn(-c4cccc5scnc45)c3C(F)(F)F)cc2Cl)n1` [Cpd 299, N-(6-(4-amino-2H-1,2,3-triazol-2-yl)-5-chloropyridin-3-yl)-1-(benzo[d]thiazol-4-yl)-5-(trifluoromethyl)-1H-pyrazole-4-carboxamide], the IC50 in assay [1] amounted to 105 nM; in assay [2], 537 nM; in assay [3] it was 309 nM.
In the same order, the values of `Cc1cc(NC(=O)c2cnn(-c3cccc4scnc34)c2C(F)(F)F)c(C)nc1-n1nccn1` [Cpd 300, 1-(benzo[d]thiazol-4-yl)-N-(2,5-dimethyl-6-(2H-1,2,3-triazol-2-yl)pyridin-3-yl)-5-(trifluoromethyl)-1H-pyrazole-4-carboxamide] are 4170 nM, 525 nM and 339 nM.
The corresponding values for `O=C(Nc1cc(Cl)c(-n2nccn2)cc1F)c1cnn(-c2cccc3nnsc23)c1C(F)(F)F` [Cpd 301, 1-(benzo[d][1,2,3]thiadiazol-7-yl)-N-(5-chloro-2-fluoro-4-(2H-1,2,3-triazol-2-yl)phenyl)-5-(trifluoromethyl)-1H-pyrazole-4-carboxamide] are 141 nM, 501 nM and 417 nM.
As to `O=C(Nc1cnc(-c2nn[nH]n2)c(Cl)c1)c1cnn(-c2cccc3ncccc23)c1C(F)(F)F` [Cpd 307, N-(5-chloro-6-(2H-tetrazol-5-yl)pyridin-3-yl)-1-(quinolin-5-yl)-5-(trifluoromethyl)-1H-pyrazole-4-carboxamide], the IC50 in assay [1] was determined as 58 nM; in assay [2], 447 nM; in assay [3] it was 427 nM.
`O=C(Nc1cnc(-c2cn[nH]n2)c(Cl)c1)c1cnn(-c2cccc3ncccc23)c1C(F)(F)F` [Cpd 309, N-(5-chloro-6-(2H-1,2,3-triazol-4-yl)pyridin-3-yl)-1-(quinolin-5-yl)-5-(trifluoromethyl)-1H-pyrazole-4-carboxamide]: the IC50 stood at 55 nM in assay [1], 151 nM in assay [2] and 117 nM in assay [3].
The corresponding values for `Cc1cc(-n2nccn2)c(Cl)cc1NC(=O)c1cnn(-c2cncc3c(F)cccc23)c1C(F)(F)F` [Cpd 317, N-(5-chloro-2-methyl-4-(2H-1,2,3-triazol-2-yl)phenyl)-1-(8-fluoroisoquinolin-4-yl)-5-(trifluoromethyl)-1H-pyrazole-4-carboxamide] are 65 nM, 72 nM and 66 nM.
On to `Cc1nc(-n2nccn2)c(Cl)cc1NC(=O)c1cnn(-c2ccc(C)n3nccc23)c1C(F)(F)F` [Cpd 318, N-(5-chloro-2-methyl-6-(2H-1,2,3-triazol-2-yl)pyridin-3-yl)-1-(7-methylpyrazolo[1,5-a]pyridin-4-yl)-5-(trifluoromethyl)-1H-pyrazole-4-carboxamide], for which the IC50 in assay [1] was determined as 83 nM; in assay [2] it was 162 nM; in assay [3] it was 138 nM.
With `O=C(Nc1ccnc(C(F)(F)F)c1)c1cnn(-c2cccn3nccc23)c1C(F)(F)F` [Cpd 319, 1-(pyrazolo[1,5-a]pyridin-4-yl)-5-(trifluoromethyl)-N-(2-(trifluoromethyl)pyridin-4-yl)-1H-pyrazole-4-carboxamide], the results for the 50% inhibitory concentration (IC50) in assay [1], in assay [2] and in assay [3] were 107 nM, 20 nM and 18 nM, respectively.
For `O=C(Nc1ccnc(C(F)(F)F)c1)c1cnn(-c2cncc3c(F)cccc23)c1C(F)(F)F` [Cpd 320, 1-(8-fluoroisoquinolin-4-yl)-5-(trifluoromethyl)-N-(2-(trifluoromethyl)pyridin-4-yl)-1H-pyrazole-4-carboxamide], the half-maximal inhibitory concentration (IC50) in assay [1] came to 69 nM; in assay [2], 182 nM; in assay [3], 93 nM.
Take `Cc1nc(-n2nccn2)c(Cl)cc1NC(=O)c1cnn(-c2cncc3sccc23)c1C(F)(F)F` [Cpd 321, N-(5-chloro-2-methyl-6-(2H-1,2,3-triazol-2-yl)pyridin-3-yl)-1-(thieno[2,3-c]pyridin-4-yl)-5-(trifluoromethyl)-1H-pyrazole-4-carboxamide]: the IC50 in assay [1] turned out to be 21 nM; in assay [2] it was 66 nM; in assay [3] it was 49 nM.
The corresponding values for `CNc1ncc(-n2ncc(C(=O)Nc3cnc(-n4nccn4)c(Cl)c3)c2C(F)(F)F)c2ccccc12` [Cpd 323, N-(5-chloro-6-(2H-1,2,3-triazol-2-yl)pyridin-3-yl)-1-(1-(methylamino)isoquinolin-4-yl)-5-(trifluoromethyl)-1H-pyrazole-4-carboxamide] are 174 nM, 195 nM and 141 nM.
The corresponding values for `CNc1ncc(-n2ncc(C(=O)Nc3cnc(-n4nccn4)c(Cl)c3)c2C(F)(F)F)c2cccc(F)c12` [Cpd 324, N-(5-chloro-6-(2H-1,2,3-triazol-2-yl)pyridin-3-yl)-1-(8-fluoro-1-(methylamino)isoquinolin-4-yl)-5-(trifluoromethyl)-1H-pyrazole-4-carboxamide] are 117 nM, 40 nM and 16 nM.
Take `CNc1ncc(-n2ncc(C(=O)Nc3cnc(-n4nccn4)c(C#N)c3)c2C(F)(F)F)c2cccc(F)c12` [Cpd 325, N-(5-cyano-6-(2H-1,2,3-triazol-2-yl)pyridin-3-yl)-1-(8-fluoro-1-(methylamino)isoquinolin-4-yl)-5-(trifluoromethyl)-1H-pyrazole-4-carboxamide]: the IC50 was determined as 55 nM in assay [1], 646 nM in assay [2] and 794 nM in assay [3].
On to `Nc1ncc(-n2ncc(C(=O)Nc3cc(Cl)c(-n4nccn4)cc3F)c2C(F)(F)F)c2ccccc12` [Cpd 327, 1-(1-aminoisoquinolin-4-yl)-N-(5-chloro-2-fluoro-4-(2H-1,2,3-triazol-2-yl)phenyl)-5-(trifluoromethyl)-1H-pyrazole-4-carboxamide], for which the IC50 in assay [1] turned out to be 79 nM; in assay [2] it was 129 nM; in assay [3] it was 100 nM.
The corresponding values for `N#Cc1cc(NC(=O)c2cnn(-c3cccc4c(N)nccc34)c2C(F)(F)F)cnc1-n1nccn1` [Cpd 328, 1-(1-aminoisoquinolin-5-yl)-N-(5-cyano-6-(2H-1,2,3-triazol-2-yl)pyridin-3-yl)-5-(trifluoromethyl)-1H-pyrazole-4-carboxamide] are 2570 nM, 741 nM and 589 nM.
The corresponding values for `Nc1nccc2c(-n3ncc(C(=O)Nc4cnc(-n5nccn5)c(Cl)c4)c3C(F)(F)F)cccc12` [Cpd 330, 1-(1-aminoisoquinolin-5-yl)-N-(5-chloro-6-(2H-1,2,3-triazol-2-yl)pyridin-3-yl)-5-(trifluoromethyl)-1H-pyrazole-4-carboxamide] are 646 nM, 21 nM and 25 nM.
For the compound `Nc1ccc2c(-n3ncc(C(=O)Nc4cnc(-n5nccn5)c(Cl)c4)c3C(F)(F)F)cccc2n1` [Cpd 331, 1-(2-aminoquinolin-5-yl)-N-(5-chloro-6-(2H-1,2,3-triazol-2-yl)pyridin-3-yl)-5-(trifluoromethyl)-1H-pyrazole-4-carboxamide], the IC50 in assay [1] came to 501 nM; in assay [2] it was 309 nM; in assay [3], 339 nM.
In the case of `N#Cc1cc(NC(=O)c2cnn(-c3cccc4nc(N)ccc34)c2C(F)(F)F)cnc1-n1nccn1` [Cpd 332, 1-(2-aminoquinolin-5-yl)-N-(5-cyano-6-(2H-1,2,3-triazol-2-yl)pyridin-3-yl)-5-(trifluoromethyl)-1H-pyrazole-4-carboxamide], the figures for the IC50 in assay [1], in assay [2] and in assay [3] were 417 nM, 48 nM and 44 nM, respectively.
As for `Cc1nc(-c2ccn(C)n2)c(Cl)cc1NC(=O)c1cnn(-c2cnc(N)c3ccccc23)c1C(F)(F)F` [Cpd 333, 1-(1-aminoisoquinolin-4-yl)-N-(5-chloro-2-methyl-6-(1-methyl-1H-pyrazol-3-yl)pyridin-3-yl)-5-(trifluoromethyl)-1H-pyrazole-4-carboxamide], the IC50 was determined as 245 nM in assay [1], 155 nM in assay [2] and 123 nM in assay [3].
The corresponding values for `Cc1cc(NC(=O)c2cnn(-c3cnc(N)c4ccccc34)c2C(F)(F)F)c(C)nc1-n1nccn1` [Cpd 334, 1-(1-aminoisoquinolin-4-yl)-N-(2,5-dimethyl-6-(2H-1,2,3-triazol-2-yl)pyridin-3-yl)-5-(trifluoromethyl)-1H-pyrazole-4-carboxamide] are 417 nM, 186 nM and 251 nM.
In the same order, the values of `Cc1cc(-n2nccn2)c(Cl)cc1NC(=O)c1cnn(-c2cnc(N)c3ccccc23)c1C(F)(F)F` [Cpd 335, 1-(1-aminoisoquinolin-4-yl)-N-(5-chloro-2-methyl-4-(2H-1,2,3-triazol-2-yl)phenyl)-5-(trifluoromethyl)-1H-pyrazole-4-carboxamide] are 174 nM, 132 nM and 60 nM.
